This is an account of results in US20210338615A1, “Inhibition of Acetyl-CoA Metabolism for Treatment and Prevention of Immune System Diseases and Disorders” (Memorial Sloan Kettering Cancer Center, priority 2016, published 2021).

The test system of assay [1] is CD4CreLdhafl/fl (KO) CD4+ T cells differentiated under Th1 conditions. The conditions noted are these: 20 mM sodium acetate for 24 h.
Procedure: In panels A-D, naïve CD4^+ T cells isolated from wild-type (WT) mice were differentiated under Th1 conditions for 2 days. DMSO or the ATP citrate lyase inhibitor (ACLi) BMS-303141 was added to the culture for another 24 h. Subsequently, cells were re-stimulated with phorbol myristate acetate (PMA) and ionomycin for 4 h. IFN-γ expression was determined by intracellular staining. […] Cell viability was determined by LIVE/DEAD staining. […] Data represent mean±SD, n=3. Two-tailed unpaired t-test, *P≤0.05; **P≤0.01; ns, not significant. […] Acetyl-CoA levels were measured by an acetyl-CoA assay kit. Data represent mean±SD, n=3. Two-tailed unpaired t-test, **P≤0.01. […] The expression of T-bet was determined by flow cytometry. Panels G and H show naïve CD4^+ T cells isolated from WT or KO mice, differentiated under Th1 conditions for 3 days. […] The expression of IFN-γ (panel G) and T-bet (panel H) were determined by flow cytometry. […]
For measurement of cytosolic acetyl-CoA, naïve CD4^+ T cells were differentiated under Th1 conditions for 2 days and then cultured in fresh T cell medium for another 24 h. […] Freshly isolated naïve WT and KO CD4^+ T cells were rested in T cell medium with 10 ng/mL IL-7 for 4 h at 37° C. in the incubator, and the level of acetyl-CoA was measured.
Assay [2] concerns CD4+ T cells differentiated under Th1 conditions. Put plainly: IFN-γ expression in CD4+ T cells differentiated under Th1 conditions (intracellular staining, flow cytometry). The conditions noted are these: for IFN-γ expression in KO T cells: LDHA-deficient (KO) Th1 cells, 20 mM sodium acetate or 30 nM TSA for another 24 h, PMA and ionomycin 4 h; for IFN-γ expression: WT naïve CD4+ T cells under Th1 conditions, inhibitor added for another 24 h, re-stimulated with PMA and ionomycin 4 h. The class given is cell-based, mouse. How it is done: Panels D and E show naïve WT or KO CD4^+ T cells differentiated under Th1 conditions for 3 days, and either left untreated or supplemented with 20 mM sodium acetate for another 24 h.
(§1) IFN-γ expression was determined by intracellular staining. […] Cell viability was determined by LIVE/DEAD staining. […] Data represent mean±SD, n=3. […] Data represent mean±SD, n=3. Two-tailed unpaired t-test, **P≤0.01. […] Data represent mean±SD, n=4.
Naïve CD4^+ T cells isolated from wild-type mice were differentiated under Th1 conditions for 3 days. DMSO or indicated concentration of Fx11 was added to the cell culture for another 24 h, with or without 20 mM sodium acetate. […] IFN-γ expression was determined by intracellular staining. Representative plots (panel A) and quantification (panel B) are shown.
(§2) Cells from thymi, spleens, and lymph nodes were depleted of erythrocytes by hypotonic lysis. Cells were incubated with specific antibodies for 15 min on ice in the presence of anti-FcγR to block FcγR binding. Dead cells were excluded by DAPI (Invitrogen) staining. To determine cytokine expression, cells were stimulated with 50 ng/mL phorbol 12-myristate 13-acetate (Sigma) and 1 μM ionomycin (Sigma) in the presence of GolgiStop (BD Biosciences) for 4 h. After stimulation, cells were stained with cell-surface marker antibodies and LIVE/DEAD Fixable dye (Invitrogen) to exclude dead cells, fixed, and permeabilized with a transcription factor staining kit (eBioscience), followed by staining with cytokine antibodies. All samples were acquired with an LSR II flow cytometer (Becton, Dickinson) and analyzed with FlowJo software (TreeStar).
CD62L^+CD44^−CD25^−CD4^+ T cells were isolated from spleen and peripheral lymph nodes of wild-type (WT) or CD4^CreLdha^fl/fl (KO) mice with naïve CD4^+ T cells isolation kits (Miltenyi or Stem Cell). Purity was checked by flow cytometry, and was over 98%. For in vitro T cell activation, 0.2-0.5×10^6 naïve CD4^+ T cells were cultured on a 24-well plate pre-coated with 5 μg/mL anti-CD3 in T cell medium [RPMI/1640, 10% fetal bovine serum, 2 mM glutamine, 1 mM sodium pyruvate, 1× non-essential amino acid (Invitrogen), 10 mM HEPES, 55 μM 2-mercaptoethanol, 100 U/ml penicillin, […]] supplemented with 2 μg/mL anti-CD28 and 100 U/ml IL-2. For T helper 1 (Th1) cell differentiation, T cells were cultured with the addition of 10 μg/mL anti-IL-4 and 10 ng/mL IL-12. For T helper 17 (Th17) cell differentiation, T cells were cultured with the addition of 10 μg/mL anti-IL-4, 10 μg/mL anti-IFN-γ, 10 μg/mL anti-IL-2, 2 ng/ml TGF-β, 10 ng/ml IL-6, 10 ng/ml IL-23, and 10 ng/mL […]. For cell proliferation experiments, naïve CD4^+ T cells were labeled with CFSE (Invitrogen), and activated on a 24-well plate, pre-coated with 5 μg/mL anti-CD3, in T cell culture medium supplemented with 2 μg/mL anti-CD28 and 100 U/mL IL-2. CFSE dilution was assessed by flow cytometry on days 1, 2, and 3 post-activation. For sodium acetate and TSA treatment experiment, cells were differentiated under Th1 conditions for 3 days, and cultured in T cell medium supplemented with 100 U/mL IL-2, 10 μg/mL anti-IL-4, 10 ng/mL IL-12, and the indicated concentrations of sodium acetate (Sigma), TSA (Promega), or […] for 24 h. For ATP citrate lyase (ACL) inhibitor experiments, naïve CD4^+ T cells isolated from WT mice were cultured under Th1 conditions for 2 days or under Th17 conditions for 3 days. […]
For orientation: In flow cytometry, cells or beads pass a laser one at a time.

For another assay, the system named is H3K9Ac at the Ifng locus. Put plainly: H3K9Ac at the Ifng promoter and CNS22 enhancer regions by ChIP-qPCR. The class given is cell-based, mouse. The conditions noted are these: KO Th1 cells, 20 mM sodium acetate or 30 nM TSA for 24 h; normalized to Cd3e promoter. For orientation: Quantitative PCR measures a nucleic acid by following its amplification.
For assay [3], the system named is CD4+ T cells differentiated under Th1 conditions. Put plainly: T-bet expression in Th1 cells by flow cytometry. To be noted: WT or KO Th1 cells, 20 mM sodium acetate or 30 nM TSA for another 24 h. The class given is cell-based, mouse. Here is the method: as §1, §2
CD62L^+CD44^−CD25^−CD4^+ T cells were isolated from spleen and peripheral lymph nodes of wild-type (WT) or CD4^CreLdha^fl/fl (KO) mice with naïve CD4^+ T cells isolation kits (Miltenyi or Stem Cell). […] CFSE dilution was assessed by flow cytometry on days 1, 2, and 3 post-activation. […]

Assay [4] relates to experimental autoimmune encephalomyelitis (EAE). The experiment in a line: Experimental autoimmune encephalomyelitis (EAE), mouse model of multiple sclerosis. The class given is in vivo. The conditions noted are these: WT mice, MOG peptide with CFA; 35 mg/kg/day intraperitoneally daily from day 7. Here is the method: In panels A-C, naïve WT or LDHA-deficient (KO) CD4^+ T cells were differentiated under Th17 conditions for 3 days. Cells were re-stimulated with PMA/ionomycin for 4 h. […] Data represent mean±SD, n=2. Two-tailed unpaired t-test, **P≤0.01. […] In panels D-F, WT or KO mice were subjected to EAE induction by immunization with MOG peptide with CFA. Clinical scoring in panel D: 0, no overt signs of disease; 1, limp tail; 2, partial hind-limb paralysis; 3, total hind-limb paralysis; 4, hind-limb paralysis and 75% body paralysis; 5, complete body paralysis, or moribund state, or death by EAE, or sacrifice for humane reasons. […] IL-17a and IFN-γ protein expression were examined by flow cytometry. Panel F is quantification of panel E; data represent mean±SD, n=4. Two-tailed unpaired t-test, ***P≤0.001. […] Naïve WT or KO CD4^+ T cells were differentiated under Th17 conditions for 3 days, and BMS 303141 was included in the culture for another 24 hours. Cells were re-stimulated with PMA/ionomycin for 4 h. IL-17a protein expression was examined by flow cytometry. […] WT mice were subjected to EAE induction by immunization with MOG peptide with CFA. BMS 303141 (35 mg/kg/day) was intraperitoneally injected daily, starting from day 7. Clinical scoring was the same as in panel D.

Assay [5] deals with CD4+ T cells differentiated under Th17 conditions. Put plainly: IL-17a expression in CD4+ T cells differentiated under Th17 conditions (flow cytometry). The class given is cell-based, mouse. Here is the method: Naïve WT or LDHA-deficient (KO) CD4^+ T cells were differentiated under Th17 conditions for 4 days. Increasing doses of GNE-140 were also included in the WT T cell culture. Cell viability was determined by a live/dead cell dye, and the percentage of live cell population is shown. In addition, cells were re-stimulated with PMA/ionomycin for 4 h. IL-17a and Foxp3 protein expression was examined by flow cytometry, and used as readouts for Th17 and Treg cell differentiation, respectively.
In panels A-C, naïve WT or LDHA-deficient (KO) CD4^+ T cells were differentiated under Th17 conditions for 3 days. Cells were re-stimulated with PMA/ionomycin for 4 h. […] Data represent mean±SD, n=2. Two-tailed unpaired t-test, **P≤0.01. […] In panels D-F, WT or KO mice were subjected to EAE induction by immunization with MOG peptide with CFA. […] Panel F is quantification of panel E; data represent mean±SD, n=4. […]
Naïve CD4 T cells (2.5×10^4) were isolated from spleen and peripheral lymph nodes of Ldha^fl/fl (WT) and CD4^CreLdha^fl/fl (KO) mice. […] Cytokines and transcription factors were analyzed by flow cytometry.
Cells from thymi, spleens, and lymph nodes were depleted of erythrocytes by hypotonic lysis. […] All samples were acquired with an LSR II flow cytometer (Becton, Dickinson) and analyzed with FlowJo software (TreeStar). […]

Procedure for H3K9Ac at the Ifng locus: Enrichment was normalized to H3K9Ac at the Cd3e promoter region. […] Cells were subsequently re-stimulated with phorbol myristate acetate (PMA) and ionomycin for 4 h.
In panels A-D, naïve CD4^+ T cells isolated from wild-type (WT) mice were differentiated under Th1 conditions for 2 days. […] Subsequently, cells were re-stimulated with phorbol myristate acetate (PMA) and ionomycin for 4 h. IFN-γ expression was determined by intracellular staining. […] Cell viability was determined by LIVE/DEAD staining. […] Data represent mean±SD, n=3. Two-tailed unpaired t-test, *P≤0.05; **P≤0.01; ns, not significant. […] Acetyl-CoA levels were measured by an acetyl-CoA assay kit. Data represent mean±SD, n=3. Two-tailed unpaired t-test, **P≤0.01. […] The expression of T-bet was determined by flow cytometry. Panels G and H show naïve CD4^+ T cells isolated from WT or KO mice, differentiated under Th1 conditions for 3 days. […] The expression of IFN-γ (panel G) and T-bet (panel H) were determined by flow cytometry. […]
Chromatin immunoprecipitations were performed with SimpleChIP Enzymatic Chromatin IP Kit (Cell Signaling) according to manufacturer's instructions. […] The relative abundance of precipitated DNA fragments was analyzed by qPCR using Power SYBR Green PCR Master Mix (Qiagen) and the enrichments were normalized to Cd3e promoter.

As for `CC(=O)[O-].[Na+]` [Acetate, sodium acetate], the acetyl-CoA production entry in assay [1] is given as “augmented acetyl-CoA production”. In addition, the “IFN-γ expression in KO T cells” value in assay [2] is “corrected IFN-γ expression in KO T cells”. For the same compound, in the assay with H3K9Ac at the Ifng locus, the “H3K9Ac in the Ifng locus” value was “normalization of H3K9Ac in Ifng promoter and enhancer regions”. The T-bet expression entry in assay [3] is reported as “without affecting T-bet expression”.

As to `COc1ccc(-c2ccccc2)cc1NS(=O)(=O)c1cc(Cl)cc(Cl)c1O` [BMS 303141, 3,5-dichloro-2-hydroxy-N-(4-methoxy[1,1′-biphenyl]-3-yl)-benzenesulfonamide], the IFN-γ expression entry in assay [2] is on record as “suppresses IFN-γ expression”. Also, in assay [4], the “protection from EAE (clinical scoring)” value was “completely protected mice from EAE”. In addition, the IL-17a production entry in assay [5] (Th17 conditions for 3 days, BMS 303141 in the culture for another 24 hours, PMA/ionomycin 4 h) is recorded as “repressed IL-17a production”.

Regarding `CCCc1c(O)c(O)c(C(=O)O)c2cc(Cc3ccccc3)c(C)cc12` [FX11], in assay [2] (WT Th1 cells, FX11 for 24 h with 20 mM sodium acetate), the “inhibitory effect on IFN-γ expression when supplementing cells with acetate” value was “fully nullified”. Besides, the IFN-γ expression entry in assay [2] is “dose-dependently inhibited IFN-γ expression”.

`O=C1N[C@](c2ccc(N3CCOCC3)cc2)(c2ccsc2)CC(O)=C1Sc1ccccc1Cl` [GNE-140, (2R)-5-(2-chlorophenyl)sulfanyl-4-hydroxy-2-(4-morpholin-4-ylphenyl)-2-thiophen-3-yl-1,3-dihydropyridin-6-one]: the IL-17A expression entry in assay [5] (WT T cells under Th17 conditions with APCs, 0.3, 10 or 30 μM GNE-140, harvested day 4, PMA/ionomycin 4 h) was “inhibited IL-17A expression in WT T cells in a dose-dependent manner”.

Take `CC(/C=C/C(=O)NO)=C\[C@@H](C)C(=O)c1ccc(N(C)C)cc1` [TSA]: in assay [2], the “IFN-γ expression in KO T cells” value is “rectified IFN-γ expression in KO T cells”. Moreover, in the assay with H3K9Ac at the Ifng locus, the “H3K9Ac in the Ifng locus” value is recorded as “increased H3K9Ac in the Ifng locus”. For the same compound, the T-bet expression result in assay [3] was “without affecting T-bet expression”.
